Data published in patent publication US11180497B2 (ANGEX PHARMACEUTICAL, INC., priority 2017, dated 2021).

Target: T1, Human IDO (Homo sapiens, UniProt P14902)
T1 construct: High control is Hela cells with IFNγ treatment; endogenous in cells; host or cells: HeLa cells treated with 25 ng/ml IFNγ
Assay: HeLa cell IDO assay (IFNγ-treated cells, N-formylkynurenine by RapidFire/MS/MS)
Assay type: cell-based
Settings: 25 ng/ml IFNγ, 200 μM Trp, 48 hours, class symbol

T1 sequence (P14902 whole entry): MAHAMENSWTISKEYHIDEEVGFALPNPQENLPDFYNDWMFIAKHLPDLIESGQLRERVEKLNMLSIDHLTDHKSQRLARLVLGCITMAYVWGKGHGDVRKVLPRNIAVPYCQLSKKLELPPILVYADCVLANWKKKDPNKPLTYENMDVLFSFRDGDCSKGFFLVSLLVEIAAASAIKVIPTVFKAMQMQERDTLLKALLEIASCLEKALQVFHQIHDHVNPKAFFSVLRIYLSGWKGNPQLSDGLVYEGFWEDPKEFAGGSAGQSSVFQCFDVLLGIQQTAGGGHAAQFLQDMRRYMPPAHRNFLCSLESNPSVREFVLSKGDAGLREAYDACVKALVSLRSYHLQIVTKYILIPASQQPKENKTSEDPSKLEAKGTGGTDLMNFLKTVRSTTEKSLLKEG

SMILES | IC50 [nM]
CC1(C(=O)Nc2ccc(Cl)cc2)CC12CCC(c1ccnc3ccc(F)cc13)CC2 (single isomer, unassigned) [Compound 11-5, N-(4-chlorophenyl)-6-(6-fluoroquinolin-4-yl)-1-methylspiro[2.5]octane-1-carboxamide] | < 100
O=C(NC1(C2CCN(c3ccnc4ccc(F)cc34)CC2)CC1)c1ccc(Cl)cc1 [Compound 27-3, 4-chloro-N-[1-[1-(6-fluoroquinolin-4-yl)piperidin-4-yl]cyclopropyl]benzamide] | 100 to 1000
N#Cc1ccc(C(=O)N[C@H]2CC3(CC[C@H](c4ccnc5ccc(F)cc54)CC3)C2)cc1 (stereo partly shown) [Compound 17-8] | < 100
O=C(NC1(C2CCC(c3ccnc4ccc(F)cc34)CC2)CC1)c1ccc(Cl)cc1 (stereo not shown) [Compound 23-5A, 4-chloro-N-(1-(4-(6-fluoroquinolin-4-yl)cyclohexyl)cyclopropyl)-benzamide] | < 100
O=C(Nc1ccc(-n2cccn2)cc1)[C@H]1C[C@]12CC[C@H](c1ccnc3ccc(F)cc31)CC2 [Compound 1-22] | 100 to 1000
O=C(Nc1ccc(Cl)cc1F)[C@H]1C[C@]12CC[C@H](c1ccnc3ccc(F)cc31)CC2 [Compound 2-5] | < 100
O=C(Nc1ccc(Cl)cc1)C1CC12CCC(c1ccnc3ccncc13)CC2 (single isomer, unassigned) [Compound 7-7, N-(4-chlorophenyl)-6-(1,6-naphthyridin-4-yl)spiro[2.5]octane-1-carboxamide] | > 1000
O=C(N[C@H]1CC2(CC[C@H](c3ccnc4ccc(F)cc43)CC2)C1)c1ccncc1 (stereo partly shown) [Compound 17-9] | 100 to 1000
O=C(Nc1ccc(Cl)cc1)C1CC2(CCC(c3ccnc4ccc(F)cc34)CC2)C1 (single isomer, unassigned) [Compound 16-8, N-(4-chlorophenyl)-7-(6-fluoroquinolin-4-yl)spiro[3.5]nonane-2-carboxamide] | > 1000
O=C(Nc1ccc(Cl)c(F)c1)[C@H]1C[C@]12CC[C@H](c1ccnc3ccc(F)cc31)CC2 [Compound 1-19] | < 100
N#Cc1ccc(NC(=O)[C@H]2C[C@]23CC[C@H](c2ccnc4ccc(F)cc42)CC3)cc1 (single isomer, unassigned) [Compound 4-6] | < 100
O=C(Nc1ccc(Cl)cc1)[C@H]1C[C@]12CC[C@H](c1ccnc3ccc(Cl)cc31)CC2 [Compound 8-4A] | < 100
O=C(Nc1ccc(Cl)cc1)C1CC2(CCC(c3ccnc4ccncc34)CC2)C1 (single isomer, unassigned) [Compound 20-8, N-(4-chlorophenyl)-7-(1,6-naphthyridin-4-yl)spiro[3.5]nonane-2-carboxamide] | < 100
O=C(Nc1ccc(Cl)cc1)C1CC12CCC(c1ccnc3ccc(F)cc13)CC2 (stereo not shown) [Compound 1-9, N-(4-chlorophenyl)-6-(6-fluoroquinolin-4-yl)spiro[2.5]octane-1-carboxamide] | < 100
O=C(Nc1ccc(Br)cc1F)[C@H]1C[C@]12CC[C@H](c1ccnc3ccc(F)cc31)CC2 (single isomer, unassigned) [Compound 4-8] | < 100
O=C(Nc1ccc(Cl)cc1)C1CC2(CCN(c3ccnc4ccc(F)cc34)CC2)C1 [Compound 19-3, N-(4-chlorophenyl)-7-(6-fluoroquinolin-4-yl)-7-azaspiro[3.5]nonane-2-carboxamide] | 100 to 1000
O=C(Nc1ccc(Cl)nc1)[C@H]1C[C@]12CC[C@H](c1ccnc3ccc(F)cc31)CC2 [Compound 1-23] | < 100

SMILES | IC50 [nM]
O=C(Nc1ccc(Cl)cc1)C1CC12CCN(c1ccnc3ccc(F)cc13)CC2 (single isomer, unassigned) [Compound 12-6, N-(4-chlorophenyl)-6-(6-fluoroquinolin-4-yl)-6-azaspiro[2.5]octane-1-carboxamide] | < 100
O=C(NC1CC2(CCC(c3ccnc4ccc(F)cc34)CC2)C1)c1ccc(Cl)cc1 (single isomer, unassigned) [Compound 17-6, 4-chloro-N-(7-(6-fluoroquinolin-4-yl)spiro[3.5]nonan-2-yl)benzamide] | < 100
O=C(NCc1ccc(Cl)cc1)[C@H]1C[C@]12CC[C@H](c1ccnc3ccc(F)cc31)CC2 [Compound 1-21] | > 1000
O=C(Nc1cccc(C(F)(F)F)c1)[C@H]1C[C@]12CC[C@H](c1ccnc3ccc(F)cc31)CC2 [Compound 1-17] | > 1000
O=C(NC1CC2(CCC(c3ccnc4ccc(F)cc34)CC2)C1)c1ccc(Cl)cc1 (single isomer, unassigned) [Compound 17-7, 4-chloro-N-(7-(6-fluoroquinolin-4-yl)spiro[3.5]nonan-2-yl)benzamide] | 100 to 1000
O=C(N[C@H]1CC2(CC[C@H](c3ccnc4ccncc43)CC2)C1)c1ccc(Cl)cc1 (single isomer, unassigned) [Compound 21-5] | > 1000
O=C(Nc1ccc(Cl)cc1)C1CC2(CCC(c3ccnc4ccc(F)cc34)CC2)C1 (single isomer, unassigned) [Compound 16-7, N-(4-chlorophenyl)-7-(6-fluoroquinolin-4-yl)spiro[3.5]nonane-2-carboxamide] | < 100
O=C(Nc1ccc(Cl)cn1)[C@H]1C[C@]12CC[C@H](c1ccnc3ccc(F)cc31)CC2 [Compound 2-3] | 100 to 1000
O=C(Nc1ccc(Cl)cc1)C1CC12CCC(c1ccnc3ccncc13)CC2 (single isomer, unassigned) [Compound 7-6, N-(4-chlorophenyl)-6-(1,6-naphthyridin-4-yl)spiro[2.5]octane-1-carboxamide] | < 100
O=C(NC1CC12CCN(c1ccnc3ccc(F)cc13)CC2)c1ccc(Cl)cc1 (stereo not shown) [Compound 13-3, 4-chloro-N-(6-(6-fluoroquinolin-4-yl)-6-azaspiro[2.5]octan-1-yl)benzamide] | 100 to 1000
O=C(Nc1ccc(Cl)cc1)C1CC12CCC(c1ccnc3ccc(F)cc13)CC2 (single isomer, unassigned) [Compound 1-11, N-(4-chlorophenyl)-6-(6-fluoroquinolin-4-yl)spiro[2.5]octane-1-carboxamide] | > 1000
O=C(Nc1ccc(F)cn1)[C@H]1C[C@]12CC[C@H](c1ccnc3ccc(F)cc31)CC2 [Compound 2-6] | < 100
O=C(Nc1ccc(Cl)cc1)C1(C2CCC(c3ccnc4ccncc34)CC2)CC1 (stereo not shown) [Compound 28-5, 1-(4-(1,6-naphthyridin-4-yl)cyclohexyl)-N-(4-chlorophenyl)cyclopropane-1-carboxamide] | < 100
O=C(Nc1ccc(Cl)cc1)C1CC12CCC(c1ccnc3ccc(F)cc13)CC2 (single isomer, unassigned) [Compound 1-10, N-(4-chlorophenyl)-6-(6-fluoroquinolin-4-yl)spiro[2.5]octane-1-carboxamide] | < 100
Cc1ccc(NC(=O)[C@H]2C[C@]23CC[C@H](c2ccnc4ccc(F)cc42)CC3)cc1 [Compound 1-14] | < 100
O=C(Nc1ccc(Br)cc1)[C@H]1C[C@]12CC[C@H](c1ccnc3ccc(F)cc31)CC2 (single isomer, unassigned) [Compound 4-4] | < 100
O=C(Nc1ccc(C(F)(F)F)cn1)[C@H]1C[C@]12CC[C@H](c1ccnc3ccc(F)cc31)CC2 (stereo in doubt) [Compound 3-2, 6-(6-fluoroquinolin-4-yl)-N-(5-(trifluoromethyl)pyridin-2-yl)spiro[2.5]octane-1-carboxamide] | > 1000
